Holding throughout (type): cell-based
The subject of assay [1] is Colo205 cells. Put plainly: Colo-205 cell proliferation assay (resazurin). As to conditions: Homo sapiens; Colo-205 cells, V600E mutation; read-out: Cell Proliferation Inhibition IC50, nM Colo-205. As for the experimental part: (§1) Colo205 cells (catalog #HB-8307) are obtained from the American Type Culture Collection (ATCC, Manassas, Va.). Briefly, cells are grown in RPMI 1640 supplemented with 10% characterized fetal bovine serum (Invitrogen, Carlsbad, Calif.), 1 mM sodium pyruvate, and 1% Penicillin/Streptomycin/L-Glutamine at 37 degrees Celsius, 5% CO2, and 95% humidity. Cells are allowed to expand until reaching 30-60% confluency at which point they are subcultured or harvested for assay use. A serial dilution of test compound is dispensed into a 384-well black clear bottom plate in triplicate. One thousand two-hundred fifty cells are added per well in 50 μL complete growth medium in the 384-well plate. Plates are incubated for 67 hours at 37 degrees Celsius, 5% CO2, and 95% humidity. At the end of the incubation period, 10 μL of a 440 μM solution of resazurin (Sigma, St. Louis, Mo.) in PBS is added to each well of the plate and plates are incubated for an additional 5 hours at 37 degrees Celsius, 5% CO2, and 95% humidity. Plates are read on a Synergy2 reader (Biotek, Winooski, Vt.) using an excitation of 540 nm and an emission of 600 nm. Data is analyzed using Prism software (Graphpad, San Diego, Calif.) to calculate IC50 values.
(§2) The A375, HT-29, and Colo-205 cells (ATCC) harbor a V600E mutation.

Assay [2] has as its system HT-29 cells. Put plainly: HT-29 cell proliferation assay (resazurin). As to conditions: Homo sapiens, V600E mutation, read-out: Cell Proliferation Inhibition IC50, nM HT-29. As for the experimental part:
as §1, with “HT-29” for “Colo205”, “#HTB-38)” for “#HB-8307)”, “McCoy's 5A” for “RPMI 1640”, “Calif.),” for “Calif.), 1 mM sodium pyruvate,”, “75-90%” for “30-60%”
as §2
(Alamar Blue is a resazurin reagent that responds to reducing activity.)

Assay [3] concerns Sk-Mel-2 cells. Nature of the assay: SK-Mel-2 cell proliferation assay (resazurin). As to conditions: Homo sapiens, N-Ras mutation B-Raf wild type, read-out: Cell Proliferation Inhibition IC50, nM SK-Mel-2.

As to `CNc1ncc2cc(-c3cc(NC(=O)NCCC(C)(C)OC)c(F)cc3C)c(C)nc2n1` [Example 14, 1-(2-Fluoro-4-methyl-5-(7-methyl-2-(methylamino)pyrido[2,3-d]pyrimidin-6-yl)phenyl)-3-(3-methoxy-3-methylbutyl)urea], the IC50 in assay [1] was less than 100 nM; in assay [2], less than 100 nM; in assay [3], 1000 to 10000 nM.
For the molecule `CNc1ncc2cc(-c3cc(NC(=O)NCC(O)C(C)(C)C)c(F)cc3F)c(C)nc2n1` (stereo not drawn) [Example 11, 1-[2,4-Difluoro-5-(7-methyl-2-methylamino-pyrido[2,3-d]pyrimidin-6-yl)phenyl]-3-(2-hydroxy-3,3-dimethyl-butyl)urea], the IC50 in assay [1], in assay [2] and in assay [3] was 100 to 1000 nM each time.
`CNc1ncc2cc(-c3cc(NC(=O)NCCC4(C)CC4)c(F)cc3C)c(C)nc2n1` [Example 24, 1-(2-Fluoro-4-methyl-5-(7-methyl-2-(methylamino)pyrido[2,3-d]pyrimidin-6-yl)phenyl)-3-(2-(1-methylcyclopropyl)ethyl)urea]: the IC50 in assay [1] was less than 100 nM; in assay [2] it was less than 100 nM; in assay [3], 100 to 1000 nM.
For the molecule `Cc1cc(F)c(NC(=O)NCCC(C)(C)C)cc1-c1cc2cnc(NCCN3CCOCC3)nc2nc1C` [Example 21, 1-(3,3-Dimethylbutyl)-3-(2-fluoro-4-methyl-5-(7-methyl-2-((2-morpholinoethyl)amino)pyrido[2,3-d]pyrimidin-6-yl)phenyl)ure], the IC50 in assay [1] was less than 100 nM; in assay [2], less than 100 nM; in assay [3], 100 to 1000 nM.
With `Cc1cc(F)c(NC(=O)NCCC(C)(C)C)cc1-c1cc2cnc(N)nc2nc1C` [Example 20, 1-(5-(2-Amino-7-methylpyrido[2,3-d]pyrimidin-6-yl)-2-fluoro-4-methylphenyl)-3-(3,3-dimethylbutyl)urea], the IC50 in assay [1], in assay [2] and in assay [3] was less than 100 nM each time.
With `CNc1ncc2cc(-c3ccc(F)c(NC(=O)NCCC(C)(C)C)c3)c(C)nc2n1` [Example 2, 1-(3,3-Dimethylbutyl)-3-(2-fluoro-5-(7-methyl-2-(methylamino)pyrido[2,3-d]pyrimidin-6-yl)phenyl)urea], the IC50 in assay [1], in assay [2] and in assay [3] was less than 100 nM in each case.
Turning to `CNc1ncc2cc(-c3cc(NC(=O)NCCC(C)(C)C)c(F)cc3F)cnc2n1` [Example 36, 1-(2,4-Difluoro-5-(2-(methylamino)pyrido[2,3-d]pyrimidin-6-yl)phenyl)-3-(3,3-dimethylbutyl)urea methanesulfonate], the IC50 lay within 1000 to 10000 nM in assay [1], 100 to 1000 nM in assay [2] and 1000 to 10000 nM in assay [3].
Regarding `CNc1ncc2cc(-c3cc(NC(=O)NCC(O)C(C)(C)C)c(F)cc3C)cnc2n1` (stereo not drawn) [Example 8, 1-[2-Fluoro-4-methyl-5-(2-methylaminopyrido[2,3-d]pyrimidin-6-yl)phenyl]-3-(2-hydroxy-3,3-dimethyl-butyl)urea], the IC50 in assay [1] is less than 100 nM; in assay [2], 100 to 1000 nM; in assay [3] it was 100 to 1000 nM.
Turning to `CNc1ncc2cc(-c3cc(NC(=O)NCC4CC4(C)C)c(F)cc3C)cnc2n1` (stereo not drawn) [Example 9], the IC50 in assay [1], in assay [2] and in assay [3] was 100 to 1000 nM each time.
On to `Cc1cc(F)c(NC(=O)NCCC2(C)CC2)cc1-c1cc2cnc(N)nc2nc1C` [Example 23, 1-(5-(2-Amino-7-methylpyrido[2,3-d]pyrimidin-6-yl)-2-fluoro-4-methylphenyl)-3-(2-(1-methylcyclopropyl)ethyl)urea], for which the IC50 in assay [1] was less than 100 nM; in assay [2] it was less than 100 nM; in assay [3], 100 to 1000 nM.
For the molecule `CNc1ncc2cc(-c3cc(NC(=O)NCCC(C)(C)C)c(F)cc3C)cnc2n1` [Example 35, 1-(3,3-Dimethylbutyl)-3-[2-fluoro-4-methyl-5-(2-methylaminopyrido[2,3-d]pyrimidin-6-yl)phenyl]urea], the IC50 in assay [1], in assay [2] and in assay [3] was less than 100 nM each time.
Take `Cc1cc(F)c(NC(=O)NCC(O)C(C)(C)C)cc1-c1cc2cnc(N)nc2nc1C` (stereo not drawn) [Example 10]: the results for the IC50 in assay [1], in assay [2] and in assay [3] were 100 to 1000 nM, 100 to 1000 nM and 1000 to 10000 nM, respectively.
Regarding `CNc1ncc2cc(-c3cc(NC(=O)NCCC(C)(C)C#N)c(F)cc3F)c(C)nc2n1` [Example 12, 1-(3-Cyano-3-methylbutyl)-3-(2,4-difluoro-5-(7-methyl-2-(methylamino)pyrido[2,3-d]pyrimidin-6-yl)phenyl)urea], the IC50 in assay [1], in assay [2] and in assay [3] was 100 to 1000 nM throughout.
Consider `CNc1ncc2cc(-c3cc(NC(=O)NCCC4(C(F)(F)F)CC4)c(F)cc3C)c(C)nc2n1` [Example 30, 1-(2-Fluoro-4-methyl-5-(7-methyl-2-(methylamino)pyrido[2,3-d]pyrimidin-6-yl)phenyl)-3-(2-(1-(trifluoromethyl)cyclopropyl)ethyl)urea], for which the figures for the IC50 in assay [1], in assay [2] and in assay [3] were less than 100 nM, less than 100 nM and 100 to 1000 nM, respectively.
As for `CNc1ncc2cc(-c3cc(NC(=O)NCCC(C)(C)F)c(F)cc3C)cnc2n1` [Example 34, 1-(3-Fluoro-3-methyl-butyl)-3-[2-fluoro-4-methyl-5-(2-methylaminopyrido[2,3-d]pyrimidin-6-yl)phenyl]urea], the IC50 in assay [1] is 100 to 1000 nM; in assay [2] it was less than 100 nM; in assay [3], 100 to 1000 nM.
For the molecule `Cc1cc(F)c(NC(=O)NCCC(C)(C)C)cc1-c1cc2cnc(NCCO)nc2nc1C` [Example 16, 1-(3,3-Dimethylbutyl)-3-[2-fluoro-5-[2-(2-hydroxyethylamino)-7-methyl-pyrido[2,3-d]pyrimidin-6-yl]-4-methyl-phenyl]urea], the IC50 in assay [1] is less than 100 nM; in assay [2], less than 100 nM; in assay [3], 100 to 1000 nM.
Take `CNc1ncc2cc(-c3ccc(F)c(NC(=O)NCCC(C)(C)C#N)c3)c(C)nc2n1` [Example 13, 1-(3-Cyano-3-methylbutyl)-3-(2-fluoro-5-(7-methyl-2-(methylamino)pyrido[2,3-d]pyrimidin-6-yl)phenyl)urea]: the IC50 in assay [1], in assay [2] and in assay [3] was 100 to 1000 nM throughout.
With `CNc1ncc2cc(-c3cc(NC(=O)NCCC(C)(C)C)c(F)cc3F)c(C)nc2n1` [Example 1, 1-(2,4-Difluoro-5-(7-methyl-2-(methylamino)pyrido[2,3-d]pyrimidin-6-yl)phenyl)-3-(3,3-dimethylbutyl)urea], the IC50 in assay [1] was less than 100 nM; in assay [2], less than 100 nM; in assay [3], 100 to 1000 nM.
With `CNc1ncc2cc(-c3cc(NC(=O)NCCC(C)(C)F)c(F)cc3C)c(C)nc2n1` [Example 4, 1-(3-Fluoro-3-methylbutyl)-3-(2-fluoro-4-methyl-5-(7-methyl-2-(methylamino)pyrido[2,3-d]pyrimidin-6-yl)phenyl)urea], the IC50 in assay [1] is 100 to 1000 nM; in assay [2], less than 100 nM; in assay [3], 100 to 1000 nM.
Take `CNc1ncc2cc(-c3cc(NC(=O)NCCC(C)(C)C#N)c(F)cc3C)c(C)nc2n1` [Example 3, 1-(3-Cyano-3-methylbutyl)-3-(2-fluoro-4-methyl-5-(7-methyl-2-(methylamino)pyrido[2,3-d]pyrimidin-6-yl)phenyl)urea]: the results for the IC50 in assay [1], in assay [2] and in assay [3] were less than 100 nM, less than 100 nM and 100 to 1000 nM, respectively.

These data come from US9334267B2, “RAF inhibitor compounds” (Deciphera Pharmaceuticals, LLC, priority 2012, dated 2016).
